These results are taken from patent US20240226106A1, “INHIBITORS OF PLASMA KALLIKREIN” (SHIRE HUMAN GENETIC THERAPIES, INC., priority 2021, published 2024).

A word on the IC90: it is the concentration needed for an effect of 90%. In general, EC50 refers to the concentration at which the effect is half-maximal.

One assay concerns the target T1, plasma kallikrein (Homo sapiens, UniProt P03952).
T1 construct: from tissue; host or cells: sodium citrate collected human plasma
Put plainly: Neat human plasma assay (fluorogenic peptide), contact pathway-activated plasma. To be noted: citrated human plasma, 10 nM human FXIIa activation, 100 μM PFR-AMC, room temperature; read-out: Human Plasma Assay: IC90. The format is biochemical. How it is done:
To analyze inhibition of plasma kallikrein in an ex vivo setting, the potency of compounds was measure in contact pathway-activated plasma assays. In a fluorogenic peptide substrate assay, test compounds dissolved in DMSO were added to sodium citrate collected human or rat plasma in a 96-well microplate. Alternatively, citrated plasma was collected from rats administered the compounds orally or by IV. 10 nM of human FXIIa (Enzyme Research Laboratories) diluted in PKa buffer (20 mM Tris-HCl, pH 7.5, 150 mM NaCl, 1 mM EDTA, 0.100 PEG-8000, and 0.1% Triton X-100) was added to the plasma, followed by the 100 μM of the profluorescent, synthetic plasma kallikrein substrate PFR-AMC (also diluted in PKa buffer). Final plasma concentration in the reaction was […]. Fluorescence was immediately monitored by excitation/emission wavelengths of 360 nm/480 nm respectively over a period of 5 minutes in a microplate reader. The resulting linear increase in fluorescence emission (reflecting PKa proteolysis of PFR-AMC substrate) was fit to extract a proteolytic rate (fluorescent units over time), and this rate was subsequently plotted against compound inhibitor concentration. Resulting plots were fit to a standard 4-parameter IC50/C90 equation to determine min/max values, IC50/90, and slope. All experimental steps were performed at room temperature.

The target in assay [1] is human activated kallikrein enzyme (Homo sapiens, UniProt P03952). Put plainly: Inhibition of human activated plasma kallikrein, fluorogenic peptide substrate (PFR-AMC), 500 pM enzyme format. The format is biochemical. Conditions: 500 pM activated kallikrein, 30 min preincubation, 10 min reaction, room temperature, read-out: Primary Dose Response Assay: Average EC50. In short, it runs like this: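 Enzyme at 500 pM with […] PFR-AMC in 20 mM Tris pH 7.5, 1 mM EDTA, 150 mM NaCl, 0.1% PEG-400, 0.1% Triton X-100. Inhibitor preincubated 30 min, then 10 min reaction at room temperature; AMC fluorescence read at 380 nm excitation/460 nm emission.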
Sequence of human activated kallikrein enzyme (P03952 391-638 limits assumed): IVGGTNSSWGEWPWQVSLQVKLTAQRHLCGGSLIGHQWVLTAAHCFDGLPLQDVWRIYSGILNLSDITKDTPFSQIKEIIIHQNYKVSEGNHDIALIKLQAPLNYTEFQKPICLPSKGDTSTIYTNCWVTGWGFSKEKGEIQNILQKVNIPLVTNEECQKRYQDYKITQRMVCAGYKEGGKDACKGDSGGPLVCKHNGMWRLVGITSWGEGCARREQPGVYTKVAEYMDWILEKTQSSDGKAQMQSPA
Sequence of human activated kallikrein enzyme (P03952 20-390 partner limits assumed): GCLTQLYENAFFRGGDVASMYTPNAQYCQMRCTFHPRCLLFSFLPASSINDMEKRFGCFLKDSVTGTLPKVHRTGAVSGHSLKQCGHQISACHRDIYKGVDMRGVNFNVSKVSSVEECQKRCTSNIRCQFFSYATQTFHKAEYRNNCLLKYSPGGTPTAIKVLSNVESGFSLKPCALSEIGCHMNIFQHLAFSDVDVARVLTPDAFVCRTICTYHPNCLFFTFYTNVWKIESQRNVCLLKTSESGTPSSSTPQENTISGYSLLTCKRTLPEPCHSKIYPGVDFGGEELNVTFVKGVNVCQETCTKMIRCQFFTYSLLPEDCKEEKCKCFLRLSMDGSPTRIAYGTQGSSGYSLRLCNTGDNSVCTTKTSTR

T1 sequence (P03952 391-638 limits assumed): as the sequence (P03952 391-638 limits assumed) above
T1 sequence (P03952 20-390 partner limits assumed): as the sequence (P03952 20-390 partner limits assumed) above

Turning to `Cc1ccnc([C@H]2C[C@@H]2C(=O)Nc2cc(N3C[C@@H](O)C[C@@H]3c3cn4cc(C5CC5)cnc4n3)ncn2)n1` (relative stereo) [Example 72, rac-(1S*,2S*)—N-(6-((2R,4S)-2-(6-cyclopropylimidazo[1,2-a]pyrimidin-2-yl)-4-hydroxypyrrolidin-1-yl)pyrimidin-4-yl)-2-(4-methylpyrimidin-2-yl)cyclopropane-1-carboxamide], the IC90 at plasma kallikrein is 500 to 5000 nM. Further, the EC50 in assay [1] was below 2.5 nM.

As for `Cc1ccnc([C@H]2C[C@@H]2C(=O)Nc2cc(OCc3cn4nc(C5CC5)cc(N5CC(=O)N(C)C5=O)c4n3)cnn2)n1` [Example 97, (1S,2S)—N-(5-((6-cyclopropyl-8-(3-methyl-2,4-dioxoimidazolidin-1-yl)imidazo[1,2-b]pyridazin-2-yl)methoxy)pyridazin-3-yl)-2-(4-methylpyrimidin-2-yl)cyclopropane-1-carboxamide], at plasma kallikrein, the IC90 was below 500 nM. The EC50 in assay [1] was below 2.5 nM.

With `Cc1ccnc([C@H]2C[C@@H]2C(=O)Nc2cc(N(C)Cc3nc4cc(C5CC5)cc(N5CC(=O)N(C)C5=O)c4[nH]3)nc(C)n2)n1` [Example 86, (S,2S)—N-(6-(((5-cyclopropyl-7-(3-methyl-2,4-dioxoimidazolidin-1-yl)-1H-benzo[d]imidazol-2-yl)methyl)(methyl)amino)-2-methylpyrimidin-4-yl)-2-(4-methylpyrimidin-2-yl)cyclopropane-1-carboxamide], on plasma kallikrein, the IC90 lay in the range of 500 to 5000 nM. Moreover, in assay [1], the EC50 is below 2.5 nM.

Regarding `O=C(Nc1cc(N2C[C@@H](O)C[C@@H]2c2cn3cc(C4CC4)cnc3n2)ncn1)[C@H]1C[C@@H]1c1cc(Cl)ccn1` [Example 73, (1S,2S)-2-(4-chloropyridin-2-yl)-N-(6-((2R,4S)-2-(6-cyclopropylimidazo[1,2-a]pyrimidin-2-yl)-4-hydroxypyrrolidin-1-yl)pyrimidin-4-yl)cyclopropane-1-carboxamide], at plasma kallikrein, the IC90 was below 500 nM. Moreover, the EC50 in assay [1] was below 2.5 nM.

In the case of `O=C(Nc1cc(NCc2cc3cc(C4CC4)cc(N4CCOC4=O)n3n2)ncn1)[C@H]1C[C@@H]1c1cc(Cl)ccn1` (racemic) [Example 56, rac-(1S*,2S*)-2-(4-chloropyridin-2-yl)-N-(6-(((5-cyclopropyl-7-(2-oxooxazolidin-3-yl)pyrazolo[1,5-a]pyridin-2-yl)methyl)amino)pyrimidin-4-yl)cyclopropane-1-carboxamide], the IC90 on plasma kallikrein lay in the range of 5000 to 65000 nM. For the same compound, in assay [1], the EC50 is below 2.5 nM.

Regarding `CN1CCN(c2cc(C3CC3)cc3cc(CNc4ccnc(NC(=O)[C@H]5C[C@@H]5c5cccc(Cl)c5)c4)nn23)CC1` [Example 54, (1S,2S)-2-(3-chlorophenyl)-N-(4-(((5-cyclopropyl-7-(4-methylpiperazin-1-yl)pyrazolo[1,5-a]pyridin-2-yl)methyl)amino)pyridin-2-yl)cyclopropane-1-carboxamide], on plasma kallikrein, the IC90 fell in the range of 500 to 5000 nM. The EC50 in assay [1] is below 2.5 nM.

Take `CN1CCN(c2cc(C3CC3)nn3cc(CNc4ccnc(NC(=O)[C@H]5C[C@@H]5c5cccc(Cl)c5)c4)nc23)CC1` [Example 40, (1S,2S)-2-(3-chlorophenyl)-N-(4-(((6-cyclopropyl-8-(4-methylpiperazin-1-yl)imidazo[1,2-b]pyridazin-2-yl)methyl)amino)pyridin-2-yl)cyclopropane-1-carboxamide]: the IC90 at plasma kallikrein is 500 to 5000 nM. In assay [1], the EC50 was below 2.5 nM.

Take `CN1CCN(c2cc(C3CC3)cc3cc(CNc4cc(NC(=O)[C@H]5C[C@@H]5c5cccc(Cl)c5)ncn4)nn23)CC1` [Example 53, (1S,2S)-2-(3-chlorophenyl)-N-(6-(((5-cyclopropyl-7-(4-methylpiperazin-1-yl)pyrazolo[1,5-a]pyridin-2-yl)methyl)amino)pyrimidin-4-yl)cyclopropane-1-carboxamide]: on plasma kallikrein, the 90% effect concentration (IC90) was in the range of 500 to 5000 nM. Further, in assay [1], the EC50 was below 2.5 nM.

With `Cc1ccnc([C@H]2C[C@@H]2C(=O)Nc2cc(NCc3ccc4ncc(C5CC5)cc4c3)ncn2)n1` [Example 93, (1S,2S)—N-(6-(((3-cyclopropylquinolin-6-yl)methyl)amino)pyrimidin-4-yl)-2-(4-methylpyrimidin-2-yl)cyclopropane-1-carboxamide], the 90% effect concentration (IC90) at plasma kallikrein is below 500 nM. Also, the EC50 in assay [1] is below 2.5 nM.

Turning to `O=C(Nc1cc(NCc2cn3cc(C4CC4)cnc3n2)ncn1)[C@H]1C[C@@H]1c1cc(Cl)ccn1` [Example 66, (1S,2S)-2-(4-chloropyridin-2-yl)-N-(6-(((6-cyclopropylimidazo[1,2-a]pyrimidin-2-yl)methyl)amino)pyrimidin-4-yl)cyclopropane-1-carboxamide], the IC90 at plasma kallikrein was 500 to 5000 nM. Besides, the EC50 in assay [1] is below 2.5 nM.

On to `Cc1ccnc([C@H]2C[C@@H]2C(=O)Nc2cc(N3C[C@@H](O)C[C@@H]3c3cn4cc(C5CC5)cnc4n3)ncn2)c1` (single isomer, unassigned) [Example 75, (1S*,2S*)—N-(6-((2R,4S)-2-(6-cyclopropylimidazo[1,2-a]pyrimidin-2-yl)-4-hydroxypyrrolidin-1-yl)pyrimidin-4-yl)-2-(4-methylpyridin-2-yl)cyclopropane-1-carboxamide], for which, at plasma kallikrein, the IC90 was in the range of 500 to 5000 nM. Also, in assay [1], the EC50 lay within 2.5 to 25 nM.

For the compound `Cc1ccnc([C@H]2C[C@@H]2C(=O)Nc2cc(NCc3cc(N4CC(=O)N(C)C4=O)c4ncc(C5CC5)cc4c3)ncn2)n1` [Example 98, (1S,2S)—N-(6-(((3-cyclopropyl-8-(3-methyl-2,4-dioxoimidazolidin-1-yl)quinolin-6-yl)methyl)amino)pyrimidin-4-yl)-2-(4-methylpyrimidin-2-yl)cyclopropane-1-carboxamide], the IC90 on plasma kallikrein was below 500 nM. Also, in assay [1], the EC50 was below 2.5 nM.

Consider `CN1CCN(c2cc(C3CC3)cn3nc(CNc4ccnc(NC(=O)[C@H]5C[C@@H]5c5cccc(Cl)c5)c4)nc23)CC1` [Example 45, (1S,2S)-2-(3-chlorophenyl)-N-(4-(((6-cyclopropyl-8-(4-methylpiperazin-1-yl)-[1,2,4]triazolo[1,5-a]pyridin-2-yl)methyl)amino)pyridin-2-yl)cyclopropane-1-carboxamide], for which the IC90 on plasma kallikrein lay in the range of 5000 to 65000 nM. Besides, in assay [1], the EC50 was below 2.5 nM.

As for `O=C(Nc1cc(N2C[C@@H](O)C[C@@H]2c2cn3nc(C4CC4)ccc3n2)ncn1)[C@H]1C[C@@H]1c1cccc(Cl)c1` [Example 60, (1S,2S)-2-(3-chlorophenyl)-N-(6-((2R,4S)-2-(6-cyclopropylimidazo[1,2-b]pyridazin-2-yl)-4-hydroxypyrrolidin-1-yl)pyrimidin-4-yl)cyclopropane-1-carboxamide], at plasma kallikrein, the IC90 was in the range of 500 to 5000 nM. The EC50 in assay [1] was 2.5 to 25 nM.

For `Cc1ccnc([C@H]2C[C@@H]2C(=O)Nc2nncc(N[C@H](C)c3cc4cc(C5CC5)cc(N5CC(=O)N(C)C5=O)n4n3)n2)n1` (single isomer, unassigned) [Example 102], at plasma kallikrein, the IC90 is below 500 nM. In addition, in assay [1], the EC50 is below 2.5 nM.

Turning to `Cc1ccnc([C@H]2C[C@@H]2C(=O)Nc2nncc(N[C@H](C)c3cc4cc(C5CC5)cc(N5CC6CC6C5=O)n4n3)n2)n1` (stereo partly drawn) [Example 105, (1S,2S)—N-(5-(((1R^•)-1-(5-cyclopropyl-7-(2-oxo-3-azabicyclo[3.1.0]hexan-3-yl)pyrazolo[1,5-a]pyridin-2-yl)ethyl)amino)-1,2,4-triazin-3-yl)-2-(4-methylpyrimidin-2-yl)cyclopropane-1-carboxamide], the IC90 on plasma kallikrein is below 500 nM. For the same compound, the EC50 in assay [1] was below 2.5 nM.

For the compound `O=C(Nc1nccc2nn(Cc3cn4nc(C5CC5)ccc4n3)cc12)[C@H]1C[C@@H]1c1cccc(Cl)c1` [Example 35, (1S,2S)-2-(3-chlorophenyl)-N-(2-((6-cyclopropylimidazo[1,2-b]pyridazin-2-yl)methyl)-2H-pyrazolo[4,3-c]pyridin-4-yl)cyclopropane-1-carboxamide], at plasma kallikrein, the IC90 was 500 to 5000 nM. Further, in assay [1], the EC50 was below 2.5 nM.

On to `Cc1ccnc([C@H]2C[C@@H]2C(=O)Nc2cc(N(C)Cc3cn4cc(C5CC5)nc(N5CC(=O)N(C)C5=O)c4n3)ncn2)n1` [Example 83, (1S,2S)—N-(6-(((6-cyclopropyl-8-(3-methyl-2,4-dioxoimidazolidin-1-yl)imidazo[1,2-a]pyrazin-2-yl)methyl)(methyl)amino)pyrimidin-4-yl)-2-(4-methylpyrimidin-2-yl)cyclopropane-1-carboxamide], for which, on plasma kallikrein, the IC90 is below 500 nM. Besides, the EC50 in assay [1] was below 2.5 nM.

On to `O=C(Nc1cc(NCc2cc3cc(C4CC4)cc(N4CCOC4=O)n3n2)ncn1)[C@H]1C[C@@H]1c1cccc(Cl)c1` [Example 49, (1S,2S)-2-(3-chlorophenyl)-N-(6-(((5-cyclopropyl-7-(2-oxooxazolidin-3-yl)pyrazolo[1,5-a]pyridin-2-yl)methyl)amino)pyrimidin-4-yl)cyclopropane-1-carboxamide], for which the 90% effect concentration (IC90) at plasma kallikrein fell in the range of 500 to 5000 nM. Also, the EC50 in assay [1] was below 2.5 nM.
